Source: PubChem BioAssay AID328 (DTP/NCI, 2004)
Values joined by “and” are separate entries in the source; they are usually repeats but may differ in a detail not shown here. Identical values can stand only once. Toxic doses and inconclusive results are not listed. Residues, ends and D or L forms follow the SMILES beside them. *: point of attachment. Cbz = O=C(OCc1ccccc1)*; Bn = c1ccc(C*)cc1

Test system: BDF1 mice, P388 leukemia ip, median survival T/C
Assay: NCI In Vivo Anticancer Drug Screen. Data for tumor model P388 Leukemia (intraperitoneal) in B6D2F1 (BDF1) mice
Conditions: endpoint: median survival time, higher = longer survival
Method in brief: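 Mice carrying the transplantable tumour receive compound or vehicle. Survival is followed in each arm, and the treated measure is divided by the vehicle measure.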

[1] = dose: 6.25 mg/kg/injection, schedule: Q01DX009 (ip), vehicle: saline with Tween-80
[2] = dose: 25.0 mg/kg/injection, schedule: Q01DX009 (ip), vehicle: saline with Tween-80
[3] = dose: 25.0 mg/kg/injection, schedule: Q04DX003 (ip), vehicle: saline with Tween-80
[4] = dose: 100.0 mg/kg/injection, schedule: Q04DX003 (ip), vehicle: saline with Tween-80
[5] = dose: 100.0 mg/kg/injection, schedule: Q04DX003 (ip), vehicle: Klucel (hydroxypropylcellulose) (HPC)
[6] = dose: 200.0 mg/kg/injection, schedule: Q04DX003 (ip), vehicle: Klucel (hydroxypropylcellulose) (HPC)
[7] = dose: 400.0 mg/kg/injection, schedule: Q04DX003 (ip), vehicle: Klucel (hydroxypropylcellulose) (HPC)
[8] = dose: 50.0 mg/kg/injection, schedule: Q01DX009 (ip), vehicle: saline with Tween-80
[9] = dose: 100.0 mg/kg/injection, schedule: Q01DX009 (ip), vehicle: saline with Tween-80
[10] = dose: 50.0 mg/kg/injection, schedule: Q01DX009 (ip), vehicle: Klucel (hydroxypropylcellulose) (HPC)
[11] = dose: 200.0 mg/kg/injection, schedule: Q04DX003 (ip), vehicle: saline with Tween-80
[12] = dose: 200.0 mg/kg/injection, schedule: Q01DX009 (ip), vehicle: saline with Tween-80

Q: Which T/C [1] does the source give for `Nc1ccc(OCc2ccccc2)cc1` here?
A: 90 % of control

Q: And the T/C (dose: 12.5 mg/kg/injection, schedule: Q01DX009 (ip), vehicle: saline with Tween-80)?
A: 100 % of control

Q: And the T/C [2]?
A: 100 % of control

Q: What about the T/C [3] of the same compound?
A: 95 % of control

Q: And the T/C (dose: 50.0 mg/kg/injection, schedule: Q04DX003 (ip), vehicle: saline with Tween-80)?
A: 100 % of control

Q: What about the T/C [4] of the same compound?
A: 100 % of control

Q: With `COC(=O)CCN1CC1` as the compound, how does the T/C (dose: 100.0 mg/kg/injection, schedule: Q01DX001 (ip), vehicle: saline with Tween-80) read?
A: 101 % of control

Q: What about the T/C (dose: 200.0 mg/kg/injection, schedule: Q01DX001 (ip), vehicle: saline with Tween-80) of the same compound?
A: 107 % of control

Q: And the T/C (dose: 400.0 mg/kg/injection, schedule: Q01DX001 (ip), vehicle: saline with Tween-80)?
A: 92 % of control

Q: For `CC(C)CC(NC(=O)C1CCCN1C(=O)C(CSCc1ccccc1)NC(=O)C(CC(N)=O)NC(=O)C(CCC(N)=O)NC(=O)OCc1ccccc1)C(=O)NCC(N)=O` (stereo unspecified) (Cbz-QNC(Bn)PLG-NH2; configuration not given here), which T/C [5] is on record?
A: 105 % of control

Q: And the T/C [6]?
A: 102 % of control

Q: And the T/C [7]?
A: 98 % of control

Q: Which T/C [8] does the source give for `OC1CCCC12CC2` (stereo unspecified) here?
A: 100 % of control

Q: And the T/C [9]?
A: 102 % of control

Q: For `O=C1c2ccccc2C(=O)c2c(NCCN3CCCCC3)ccc(NCCN3CCCCC3)c21`, which T/C (dose: 50.0 mg/kg/injection, schedule: Q01DX009 (ip), vehicle: other) is on record?
A: 115 % of control

Q: What does the source list for `COc1ccc(C2C=C(C)Oc3c2c(=O)oc2ccccc32)cc1OC` (stereo unspecified)?
A: T/C (dose: 6.25 mg/kg/injection, schedule: Q04DX003 (ip), vehicle: water): 98 % of control; T/C (dose: 12.5 mg/kg/injection, schedule: Q01DX009 (ip), vehicle: water): 91 % of control; T/C (dose: 12.5 mg/kg/injection, schedule: Q04DX003 (ip), vehicle: water): 104 % of control; T/C (dose: 25.0 mg/kg/injection, schedule: Q04DX003 (ip), vehicle: water): 100 % of control; T/C (dose: 50.0 mg/kg/injection, schedule: Q04DX003 (ip), vehicle: water): 100 % of control; T/C (dose: 100.0 mg/kg/injection, schedule: Q04DX003 (ip), vehicle: water): 88 % of control and 96 % of control; T/C (dose: 200.0 mg/kg/injection, schedule: Q04DX003 (ip), vehicle: water): 94 % of control; T/C (dose: 400.0 mg/kg/injection, schedule: Q04DX003 (ip), vehicle: water): 90 % of control

Q: Which results are given for `Cc1nc(N)nc(N)c1-c1ccc(Cl)c(Cl)c1`?
A: T/C (dose: 0.85 mg/kg/injection, schedule: Q01DX009 (ip), vehicle: saline with Tween-80): 100 % of control; T/C (dose: 1.0 mg/kg/injection, schedule: Q02DX005 (ip), vehicle: Klucel (hydroxypropylcellulose) (HPC)): 103 % of control; T/C (dose: 1.0 mg/kg/injection, schedule: Q02DX009 (ip), vehicle: Klucel (hydroxypropylcellulose) (HPC)): 107 % of control; T/C (dose: 2.0 mg/kg/injection, schedule: Q02DX005 (ip), vehicle: Klucel (hydroxypropylcellulose) (HPC)): 111 % of control; T/C (dose: 2.0 mg/kg/injection, schedule: Q02DX009 (ip), vehicle: Klucel (hydroxypropylcellulose) (HPC)): 117 % of control; T/C (dose: 3.0 mg/kg/injection, schedule: Q01DX009 (ip), vehicle: saline with Tween-80): 122 % of control; T/C (dose: 4.0 mg/kg/injection, schedule: Q02DX005 (ip), vehicle: Klucel (hydroxypropylcellulose) (HPC)): 101 % of control; T/C (dose: 4.0 mg/kg/injection, schedule: Q02DX009 (ip), vehicle: Klucel (hydroxypropylcellulose) (HPC)): 121 % of control; T/C (dose: 4.5 mg/kg/injection, schedule: Q01DX009 (ip), vehicle: saline with Tween-80): 118 % of control; T/C [1]: 86 % of control; T/C (dose: 8.0 mg/kg/injection, schedule: Q02DX005 (ip), vehicle: Klucel (hydroxypropylcellulose) (HPC)): 97 % of control; T/C (dose: 8.0 mg/kg/injection, schedule: Q02DX009 (ip), vehicle: Klucel (hydroxypropylcellulose) (HPC)): 154 % of control; T/C (dose: 16.0 mg/kg/injection, schedule: Q02DX009 (ip), vehicle: Klucel (hydroxypropylcellulose) (HPC)): 117 % of control; T/C [3]: 172 % of control; T/C (dose: 37.5 mg/kg/injection, schedule: Q04DX003 (ip), vehicle: saline with Tween-80): 118 % of control

Q: How did the T/C [9] turn out when `O=S(=O)(Sc1ccc(N(CCCl)CCCl)cc1)c1ccc(N(CCCl)CCCl)cc1` was run?
A: 122 % of control

Q: And the T/C (dose: 132.0 mg/kg/injection, schedule: Q01DX009 (ip), vehicle: saline with Tween-80)?
A: 110 % of control

Q: With `C1=CC=CN(c2ccccc2)C=C1` as the compound, how does the T/C [10] read?
A: 90 % of control

Q: What about the T/C (dose: 100.0 mg/kg/injection, schedule: Q01DX009 (ip), vehicle: Klucel (hydroxypropylcellulose) (HPC)) of the same compound?
A: 105 % of control

Q: And the T/C [5]?
A: 95 % of control

Q: And the T/C (dose: 200.0 mg/kg/injection, schedule: Q01DX009 (ip), vehicle: Klucel (hydroxypropylcellulose) (HPC))?
A: 105 % of control

Q: What about the T/C [6] of the same compound?
A: 91 % of control

Q: And the T/C [7]?
A: 100 % of control

Q: `Cc1ccc(NC(=O)c2ccc([N+](=O)[O-])cc2)c(C)c1` was tested. Which T/C [4] did it give?
A: 100 % of control

Q: What about the T/C [11] of the same compound?
A: 104 % of control

Q: And the T/C (dose: 400.0 mg/kg/injection, schedule: Q04DX003 (ip), vehicle: saline with Tween-80)?
A: 96 % of control

Q: How did the T/C (dose: 25.0 mg/kg/injection, schedule: Q01DX009 (ip), vehicle: saline) turn out when `COc1ccc(/C=C/C(=O)c2ccc3cc(OC)c(OC)cc3c2)cc1OC` was run?
A: 98 % of control

Q: And the T/C (dose: 50.0 mg/kg/injection, schedule: Q01DX009 (ip), vehicle: saline)?
A: 91 % of control

Q: What about the T/C (dose: 100.0 mg/kg/injection, schedule: Q01DX009 (ip), vehicle: saline) of the same compound?
A: 87 % of control

Q: And the T/C (dose: 200.0 mg/kg/injection, schedule: Q01DX009 (ip), vehicle: saline)?
A: 100 % of control

Q: What about the T/C (dose: 400.0 mg/kg/injection, schedule: Q01DX009 (ip), vehicle: saline) of the same compound?
A: 91 % of control

Q: `Clc1ccc(C2CC3CCCCN3O2)cc1` (stereo unspecified) was tested. Which T/C [8] did it give?
A: 90 % of control

Q: What about the T/C [9] of the same compound?
A: 99 % of control

Q: What about the T/C [12] of the same compound?
A: 90 % of control

Q: How did the T/C (dose: 100.0 mg/kg/injection, schedule: Q01DX009 (ip), vehicle: gum acacia) turn out when `CC1CCc2c(ccc3ccccc23)C1=O` (stereo unspecified) was run?
A: 92 % of control

Q: And the T/C (dose: 100.0 mg/kg/injection, schedule: Q04DX003 (ip), vehicle: gum acacia)?
A: 107 % of control

Q: What about the T/C (dose: 200.0 mg/kg/injection, schedule: Q01DX009 (ip), vehicle: gum acacia) of the same compound?
A: 100 % of control

Q: And the T/C (dose: 200.0 mg/kg/injection, schedule: Q04DX003 (ip), vehicle: gum acacia)?
A: 103 % of control

Q: And the T/C (dose: 400.0 mg/kg/injection, schedule: Q01DX009 (ip), vehicle: gum acacia)?
A: 100 % of control

Q: What about the T/C (dose: 400.0 mg/kg/injection, schedule: Q04DX003 (ip), vehicle: gum acacia) of the same compound?
A: 89 % of control

Q: What does the source list for `CC(C)CNC(=S)N/N=C\C=N/NC(=S)NCC(C)C`?
A: T/C (dose: 75.0 mg/kg/injection, schedule: Q01DX009 (ip), vehicle: saline with Tween-80): 98 % of control; T/C (dose: 150.0 mg/kg/injection, schedule: Q01DX009 (ip), vehicle: saline with Tween-80): 91 % of control

Q: `CCCCCCC1OCC2(CO1)COC(CCCCCC)OC2` (stereo unspecified) was tested. Which T/C [4] did it give?
A: 90 % of control

Q: And the T/C [11]?
A: 86 % of control

Q: Which T/C [2] does the source give for `CCCCCCC(=O)/C=C/c1c(Cl)cccc1Cl` here?
A: 91 % of control

Q: And the T/C [8]?
A: 112 % of control

Q: What about the T/C [9] of the same compound?
A: 103 % of control and 108 % of control

Q: And the T/C [12]?
A: 116 % of control

Q: Which T/C (dose: 0.37 mg/kg/injection, schedule: Q01DX009 (ip), vehicle: saline) does the source give for `CCNC1=C(N2CC2)C(=O)C(NCC)=C(N2CC2)C1=O` here?
A: 156 % of control and 175 % of control

Q: What about the T/C (dose: 0.75 mg/kg/injection, schedule: Q01DX009 (ip), vehicle: saline) of the same compound?
A: 193 % of control and 203 % of control

Q: And the T/C (dose: 1.5 mg/kg/injection, schedule: Q01DX009 (ip), vehicle: saline)?
A: 228 % of control and 178 % of control

Q: How did the T/C (dose: 15.0 mg/kg/injection, schedule: Q04DX003 (ip), vehicle: Klucel (hydroxypropylcellulose) (HPC)) turn out when `CS(=O)(=O)Nc1ccc(Nc2c3ccccc3nc3ccccc23)cc1` was run?
A: 109 % of control

Q: What about the T/C (dose: 25.0 mg/kg/injection, schedule: Q01DX009 (ip), vehicle: Klucel (hydroxypropylcellulose) (HPC)) of the same compound?
A: 95 % of control

Q: And the T/C [10]?
A: 120 % of control

Q: And the T/C (dose: 50.0 mg/kg/injection, schedule: Q04DX003 (ip), vehicle: Klucel (hydroxypropylcellulose) (HPC))?
A: 122 % of control

Q: What about the T/C (dose: 100.0 mg/kg/injection, schedule: Q04DX003 (ip), vehicle: saline) of the same compound?
A: 200 % of control and 209 % of control

Q: What about the T/C (dose: 150.0 mg/kg/injection, schedule: Q04DX003 (ip), vehicle: Klucel (hydroxypropylcellulose) (HPC)) of the same compound?
A: 159 % of control

Q: And the T/C (dose: 175.0 mg/kg/injection, schedule: Q04DX003 (ip), vehicle: saline)?
A: 237 % of control

Q: And the T/C (dose: 200.0 mg/kg/injection, schedule: Q04DX003 (ip), vehicle: saline)?
A: 204 % of control and 223 % of control

Q: What about the T/C (dose: 265.0 mg/kg/injection, schedule: Q04DX003 (ip), vehicle: saline) of the same compound?
A: 250 % of control

Q: And the T/C (dose: 400.0 mg/kg/injection, schedule: Q04DX003 (ip), vehicle: saline)?
A: 272 % of control and 95 % of control and 100 % of control

Q: How did the T/C [8] turn out when `CCSC1(SCC)C(=O)OC2=C(CCCCC2)C1N(C)c1ccccc1` (stereo unspecified) was run?
A: 87 % of control

Q: What about the T/C [12] of the same compound?
A: 96 % of control
